Test results: patent publication US12686667B2, “Methods and compositions for gamma-glutamyl cycle modulation” (CANCER RESEARCH TECHNOLOGIES LLC, priority 2013, dated 2026)

How the values were obtained:
Balb C Mice = experiment: LD50 toxicity study on Balb C mice; format: in vivo
Description: LD50 data was measured, and exemplary gamma-glutamyl cycle inhibitor's toxicity study was conducted on Balb C Mice. A conjugate of L-penicillamine and methyl glyoxal (MGPA) was adminstered at about 4500 mg/kg ip, 5000 mg/kg oral. A conjugate of L-penicillamine and para-methoxyphenyl (PMPA) was administered at 5250 mg/kg ip, 5500 mg/kg oral; and a conjugate of L-penicillamine and citronellal (CNPA) was administered at 3250 mg/kg ip, 4500 mg/kg oral.

B6C3F1 Mice = experiment: LD50 determination in B6C3F1 mice; format: in vivo; parameters: 1/10 LD50: unit: mg/kg/inj
Source text: Summary of LD50 Determination with a conjugate of L-penicillamine and salicylaldehyde (L-SAPA), a conjugate of L-penicillamine and benzaldehyde (L-BAPA), a conjugate of L-penicillamine and pyruvic aldehyde (L-PAPA) and a conjugate of L-penicillamine and glutaric dialdehyde (L-GAPA) in B6C3F1 Mice.

lung CA CRL5891 = experiment: Survival of nude mice inoculated with human lung cancer; format: in vivo, athymic nude mice; conditions: for survival of treated group: nude male mice, 400 rads, lung CA CRL5891, 100 mg/kg I.P. every day, six days a week, followed up for 120 days, control: eight of ten died
Description: In order to examine survival of athymic nude mice inoculated intravenously with tumors, one group of the inoculated mice was treated with racemic BA-GGCI, and a second group of the inoculated mice were treated with placebo, and the effects of treatment with BA-GGCI and placebo were compared.
Two subgroups of nude male mice where examined: A control group and an experimental group. The groups included twenty athymic nude mice (ten control and ten experimental) subjects, each irradiated with 400 rads of radiation and inoculated with lung CA CRL5891 at 3×10,000,000 cells per mouse. Interventional treatment was identical to the first study as above.
The subjects were followed up for 120 days. In the Control group, eight of ten subjects died. Two of the surviving mice developed a large tumor.

[1] = system: human prostate tumor cell line; experiment: Nude mouse model inoculated with human prostate tumor cell line; racemic, L- and D-GGCI compared; format: in vivo, nude mice
Description: Relative activities of the exemplary enantiomeric GGCI compounds of this invention were compared. Conjugates of benzaldehyde, salicylaldehyde and para-methoxybenzaldehyde were prepared, using either enantiomeric L- or D-penicillamine as the second reactant. The efficacy of racemic BA-GGCI, racemic SA-GGCI and racemic PMB-GGCI in the treatment of human prostate cancer was tested using the nude mouse model as in Example 2, except that the nude mice were inoculated intravenously with a human prostate tumor cell line. One group of the inoculated mice was treated with the racemic BA-GGCI and a control group of the inoculated mice was treated with placebo, and the effects of treatment with GGCI and placebo were compared. Response to treatment was monitored by changes in [PSA].
The exemplary L- and D-enantiomer BA-GGCIs were prepared in accordance with synthetic scheme of FIG. 1 using L-penicillamine.

[2] = system: patients with advanced prostate cancer; experiment: Compassionate use treatment of patients with advanced prostate cancer; format: in vivo, human
Description: Two patients with advanced prostate cancer were treated under a compassionate use program with an exemplary GGCI
Racemic BA-GGCI was administered to two human subjects who were receiving hormonal therapy for 12 and 14 months respectively.
At the onset of the GGCI treatment, both patients were bedridden with PSA (Prostate Specific Antigen) values of 340 and 180 ng/mL respectively. Both subjects presented with multiple bone metastases, and agonizing pains. The GGCI treatment protocol comprised 600 mg of GGCI capsule 3 times/day (formulated for human based on less then 5% of the LD50 toxicity on mice).

Human Melanoma cells 624 = experiment: Survival of nude mice inoculated with human melanoma; format: in vivo, athymic nude mice; conditions: for survival of treated group: nude mice, 400 rads, Human Melanoma cells 624, 100 mg/kg I.P. every day, six days a week, followed up for 120 days, control: ten out of ten died
Description: In order to examine the survival rate of athymic nude mice, inoculated intravenously with tumors, one group of the inoculated mice was treated with BA-GGCI, and a second group of the inoculated mice were treated with placebo, and the effects of treatment with BA-GGCI and placebo were compared.
Two subgroups of nude mice were examined: a control group and an experimental group. The groups included a total of twenty athymic nude mice (ten control and ten experimental), each irradiated with 400 rads of radiation and inoculated with Human Melanoma cells 624 at 3.0×10,000,000 cells per mouse. Treatment of the experimental group with racemic BA-GGCI commenced at 24 hours after the inoculation. The treatment was administered intraperitoneally (I.P.) at a dose of 100 mg/kg in 2 cc of saline every day, six days a week. The control group received placebo (2 cc saline IP), every day, six days a week.
The subjects were followed up for 120 days.

CD1 mice = experiment: Sub-acute (4 weeks) per os (via food) toxicity to mice; format: in vivo
Source text: Sample: L-Thiazolidine-di-methyl-carboxylic acid: “L-BAPA” powder was mixed in the food (pellets).
Subjects were examined for: Sub-acute (4 weeks) per os (via food) toxicity of L-BAPA to mice.
Forty females and forty male CD1 mice, 8-10 weeks old, were housed 5 per cage (milipore filtered top cages), half of them used as controls, receiving normal mouse diet (prepared at the breeding center food plant). The other half were the experimental group and received same food composition in which 0.6 g L-Thiazolidine-di-methyl-carboxylic acid in kg food was mixed and pelleted in smaller pellet machine. This food contains 12% humidity, as compared with 6% humidity of the control diet. The animals were fed ad libitum. All animals were weighed weekly and food consumption was recorded. Possible clinical or pharmaceutical effects were checked daily. After 4 weeks, the mice were put into metabolic cages for 24 hours, their urine was collected, and then the animals were bled before sacrificing. The blood was analyzed and bone marrow smears were prepared for differential count.
The reason for putting […] in a group was to assure enough blood and urine for analysis, so all the blood clinical chemistry and urinalysis are of a pool of 2 mice each. All other results are individual results, performed randomly on one of each 2 mouse group.
The following organs were examined histologically: adrenals, brain, eye, gonads, heart, intestines (colon, caecum, duodenum, ileum, rectum) kidneys, liver, lungs, lymph nodes (mesenterial and inguinal) mammary gland, mediastinum, esophagus, pancreas, pituitary, salivary gland, skeletal muscle, skin, spinal cord, spleen, stomach, thyroid, urinary bladder and uterus. The organs were fixed in Bouin's solution and stained with hematoxylin-eosin-phosphomolybdic-acid light green stain. Weights for the adrenals, gonads, kidneys, liver and pituitary were recorded and the ratio organ weight/body weight was calculated.
The following lab studies were performed:
Hematology: Hemoglobin, hematocrit, erythrocyte count, leukocyte count.
Clinical chemistry: alkaline phosphatase, blood urea nitrogen, serum glutamic, pyruvic transaminase, blood sugar.
Urinalysis: appearance occult blood, protein Ph, bilirubin, ketones, glucose, nitrites, urobilinogen.

[3] = subject #1, 600 mg capsule 3 times/day
[4] = subject #2, 600 mg capsule 3 times/day
[5] = CD1 mice, 0.6 g in kg food, 4 weeks
[6] = CD1 mice, 0.6 g in kg food, 4 weeks, versus control

SMILES | 1/10 LD50 (B6C3F1 Mice; Schedule Day 1, Route ip) | Calculated LD50 mg/kg/inj. (B6C3F1 Mice; Schedule Day 1, Route ip) [mg/kg/inj.] | 1/10 LD50 (B6C3F1 Mice; Schedule Day 1, Route oral) | Calculated LD50 mg/kg/inj. (B6C3F1 Mice; Schedule Day 1, Route oral) [mg/kg/inj.] | 1/10 LD50 (B6C3F1 Mice; Schedule Day 1-5, Route ip) | Calculated LD50 mg/kg/inj. (B6C3F1 Mice; Schedule Day 1-5, Route ip) [mg/kg/inj.] | 1/10 LD50 (B6C3F1 Mice; Schedule Day 1-5, Route oral) | Calculated LD50 mg/kg/inj. (B6C3F1 Mice; Schedule Day 1-5, Route oral) [mg/kg/inj.] | survival of treated group (lung CA CRL5891) | survival of treated group (Human Melanoma cells 624) | further results
CC(=O)C1NC(C(=O)O)C(C)(C)S1 (centres unmarked) [MGPA] | – | – | – | – | – | – | – | – | – | – | LD50 (Balb C Mice; ip): about 4500 mg/kg; LD50 (Balb C Mice; oral): 5000 mg/kg
CC1(C)SC(CCCC=O)N[C@H]1C(=O)O (stereo partly drawn) [L-GAPA] | 375 | 3749 | 500 | >5000 | 169 | 1690 | 500 | >5000 | – | – | –
CC1(C)SC(c2ccccc2)NC1C(=O)O (racemic) [racemic BA-GGCI] | – | – | – | – | – | – | – | – | all mice remained alive | ten out of ten subjects in the treated group were all alive | detectable tumor in treated group (lung CA CRL5891; lung CA CRL5891 nude mice, 100 mg/kg I.P., 120 days): none with detectable tumor; survival rate versus control group ([1]; nude mice inoculated intravenously with human prostate tumor cell line, treatment as in Example 2, response monitored by [PSA]): significantly higher survival rate than the control group; PSA value after treatment (dropped from 340) [2, 3]: 18 units; time to return to regular activities [2, 3]: within a month; time until pain level subsided [2, 3]: ≤ 10 days; PSA level after continued drop ([2]; subject #1, 600 mg capsule 3 times/day, later): 5 units; time subject felt normal ([2]; subject #1, before they eventually passed away): 28 months; bone CAT scan ([2]; subject #1, multiple bone metastases at onset): substantial remission; survival after initiation of the treatment (still alive, feeling well) ([2]; subject #2): ≥ 36 months; PSA after treatment (180 ng/mL at onset) [2, 4]: 16 units; time to return to normal activities [2, 4]: 2-3 weeks; time until pains subsided [2, 4]: 7 days; tumor development in treated group (Human Melanoma cells 624; Human Melanoma cells 624 nude mice, 100 mg/kg I.P., after stopping the treatment): Two of the subjects developed small tumors after stopping the treatment
CC1(C)SC(c2ccccc2O)NC1C(=O)O (racemic) [racemic SA-GGCI] | – | – | – | – | – | – | – | – | results similar to those obtained with racemic BA-GGCI | results similar to those obtained with racemic BA-GGCI | subjective well-being of patients ([2]; human patients, compared with BA-GGCI): subjectively felt better than patients to whom BA-GGCI was administered; overall treatment result in patients ([2]; human patients, compared with BA-GGCI treatment): results similar to those obtained with B-GGCI treatment
COc1ccc(C2N[C@@H](C(=O)O)C(C)(C)S2)cc1 (mixture of isomers) [racemic PMB-GGCI, 2-imino-3-p-methoxybenzyl-4 sulfanyl-5 dimethyl 1-carboxylic acid] | – | – | – | – | – | – | – | – | results similar to those obtained with racemic BA-GGCI | results similar to those obtained with racemic BA-GGCI | –
CC(=O)C1N[C@@H](C(=O)O)C(C)(C)S1 (stereo partly drawn) [L-PAPA] | 500 | >5000 | 500 | >5000 | 277 | 2771 | 500 | >5000 | – | – | –
CC1(C)SC(c2ccccc2)N[C@H]1C(=O)O (stereo partly drawn) [L-BAPA] | 88.4 | 884 | 355 | 3553 | 88.4 | 884 | 216 | 2158 | – | – | clinical symptoms, daily observation (CD1 mice; CD1 mice, 0.6 g in kg food ad libitum, 4 weeks): no clinical or other effect could be observed; Blood cell analysis and differential count (CD1 mice; [5]): All values are within the normal range and no significant difference between the control and the experimental groups is noted; Bone marrow differential count (CD1 mice; [5]): All values are within the normal range and no significant difference between the control and the experimental groups is noted; Histopathology (CD1 mice; CD1 mice, 0.6 g in kg food, 4 weeks, 10 male and 10 females per group, thirty-one organs): No other pathological or other changes could be observed; Food consumption (CD1 mice; CD1 mice, 0.6 g in kg food, 4 weeks, experimental food 12% humidity versus 6% control): more L-BAPA containing experimental food was consumed by the experimental group then normal food by the control; Blood clinical chemistry and urinalysis (CD1 mice; CD1 mice, 0.6 g in kg food, 4 weeks, pool of 2 mice each): All values are within the normal range and no significant difference between the control and the experimental groups is noted; Body weight (CD1 mice; [6]): no significant difference between the experimental group and the control group; Organ weight and ratio organ/body weight (CD1 mice; [6]): No significant difference between the experimental and the control group is noted; clinical or pathological changes (conclusion) (CD1 mice; mixed in the food (0.6 g in kg food), fed ad libitum for 4 weeks): does not produce any clinical or pathological changes to mice; activity compared to the corresponding racemate ([1]; (L) compound versus racemic mixture): at least twice as active as the corresponding racemic mixture
CC(C)=CCCC(C)CC1NC(C(=O)O)C(C)(C)S1 (centres unmarked) [CNPA] | – | – | – | – | – | – | – | – | – | – | LD50 (Balb C Mice; ip): 3250 mg/kg; LD50 (Balb C Mice; oral): 4500 mg/kg
